Laboratory results: paper PMC3586484, “Comparative Cytochrome P450 In Vitro Inhibition by Atypical Antipsychotic Drugs” (ISRN Pharmacology, 2013)
Values belong to the compound of their own block, whether it stands above or below them.

How the values were obtained:
CYP2D6 [1] = target: T1, CYP2D6 (Homo sapiens, UniProt P10635); conditions: cited from earlier work
CYP2D6 [2] = target: T1, CYP2D6; assay: biochemical
Excerpt: The composition of the mobile phase was 40% acetonitrile: 60% acetic acid (0.1%) (vol/vol).

CYP3A [3] = assay: Inhibition of CYP3A-mediated midazolam 1′-hydroxylation in human liver microsomes; assay type: in vitro ADME; conditions: for Inhibitory potency ([inhibitor]/K i), CYP3A (1-hydroxylation): relative to the mean of reported therapeutic concentrations
Protocol: (§1) The mass spectrometer was run in the positive ion mode. Nitrogen as the drying gas was supplied at a flow of 10 L/minutes and at a temperature of 350°C.

[4] = reported therapeutic concentrations; ref Kirchherr and Kühn-Velten [18]; cited from earlier work
CYP3A [5] = assay: Inhibition of CYP3A-mediated midazolam 4′-hydroxylation in human liver microsomes; assay type: in vitro ADME; conditions: abaperidone up to 20 μM
Protocol: as §1

CYP2C9 = CYP2C9 (Homo sapiens, UniProt P11712); assay: Inhibition of CYP2C9-mediated diclofenac 4′-hydroxylation in human liver microsomes; conditions: 15 μM diclofenac, antipsychotics 0.05 to 50 μM, abaperidone up to 20 μM
CYP2C9, sequence (P11712 whole entry): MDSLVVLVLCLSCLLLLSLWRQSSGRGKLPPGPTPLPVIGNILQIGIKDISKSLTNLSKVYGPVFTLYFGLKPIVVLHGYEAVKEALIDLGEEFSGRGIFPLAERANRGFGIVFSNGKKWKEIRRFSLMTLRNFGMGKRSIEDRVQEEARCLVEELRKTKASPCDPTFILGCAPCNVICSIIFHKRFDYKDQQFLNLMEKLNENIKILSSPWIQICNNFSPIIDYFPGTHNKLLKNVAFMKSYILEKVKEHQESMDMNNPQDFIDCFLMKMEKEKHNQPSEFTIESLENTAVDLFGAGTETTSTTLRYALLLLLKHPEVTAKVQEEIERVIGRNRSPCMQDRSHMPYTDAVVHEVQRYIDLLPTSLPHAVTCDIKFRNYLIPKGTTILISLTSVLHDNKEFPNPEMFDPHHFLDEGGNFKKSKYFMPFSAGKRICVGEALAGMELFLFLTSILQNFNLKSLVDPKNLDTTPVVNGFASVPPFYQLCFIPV
Protocol: Inhibition studies on four different CYP isoform-specific substrates were carried out in human liver microsomes (Gentest Corporation, Woburn, MA). Assessed reactions were phenacetin O-deethylation for CYP1A2, (+/−)-bufuralol 1′-hydroxylation for CYP2D6, diclofenac 4′-hydroxylation for CYP2C9, and midazolam 1′- and 4′-hydroxylation for CYP3A. The different antipsychotics were dissolved in methanol and serially diluted with 100 mM tris buffer (pH = 7.5) to obtain final concentrations ranging from 0.05 to 50 μM. Abaperidone was an exception and was dissolved in hot water up to a maximum concentration of 20 μM.
Reactions were started by adding microsomal protein and the mix was then vortexed and incubated at 37°C for 30 min. The process was stopped by the addition of acetonitrile and incubation on ice during 10 minutes. Samples were then centrifuged at 10,000 g for 3 minutes, and the supernatant was taken for subsequent HPLC analysis. Control inhibition studies were carried out with prototypic inhibitors in increasing concentrations up to 20 μM, namely, furafylline (CYP1A2), quinidine (CYP2D6), sulphaphenazole (CYP2C9), and ketoconazole (CYP3A).
The effect of antipsychotics on the rate of CYP-catalyzed probe substrates was expressed as a percentage of the control activity with no antipsychotic present.

T1 sequence (P10635 whole entry): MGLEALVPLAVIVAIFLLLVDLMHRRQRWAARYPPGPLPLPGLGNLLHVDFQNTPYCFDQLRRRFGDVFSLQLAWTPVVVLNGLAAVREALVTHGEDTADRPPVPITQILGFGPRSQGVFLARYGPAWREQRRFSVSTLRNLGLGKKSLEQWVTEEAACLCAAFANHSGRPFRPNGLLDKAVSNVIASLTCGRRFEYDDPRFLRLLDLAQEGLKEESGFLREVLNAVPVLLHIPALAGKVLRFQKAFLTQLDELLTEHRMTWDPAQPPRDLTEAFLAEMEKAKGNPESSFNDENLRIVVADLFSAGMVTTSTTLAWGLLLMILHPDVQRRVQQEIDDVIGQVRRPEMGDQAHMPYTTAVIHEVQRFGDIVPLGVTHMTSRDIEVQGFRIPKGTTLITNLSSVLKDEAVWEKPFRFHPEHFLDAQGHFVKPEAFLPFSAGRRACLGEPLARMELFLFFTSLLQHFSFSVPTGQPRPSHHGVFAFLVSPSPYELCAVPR

SMILES: O=C(CCCN1CCC(O)(c2ccc(Cl)cc2)CC1)c1ccc(F)cc1 [Haloperidol]
Inhibition of CYP2D6 (in words, literature) (CYP2D6 [1]): inhibitory effect

IC50 (CYP2D6 [2]): 25.5 µM
Ki (CYP2D6 [2]): 12.8 µM
Ki at 30 min (CYP3A [3]; human, human liver microsomes, pH 7.5, probe midazolam (1′-hydroxylation), 10 μM, estimate obtained from IC50 as described in [17] (IC50-to-Ki tool), read-out: K i, CYP3A (1-hydroxylation)): 15 µM
inhibition at 30 min (CYP3A [3]; pH 7.5, probe midazolam (1′-hydroxylation), 10 μM, human liver microsomes, inhibitor 0.05 to 50 μM, read-out: I max (maximum inhibition), CYP3A (1-hydroxylation)): 58.2%
IC50 at 30 min (CYP3A [3]; pH 7.5, probe midazolam (1′-hydroxylation), human liver microsomes, 10 μM midazolam, 30 min 37°C): 30 µM
Inhibitory potency ([inhibitor]/K i), CYP3A (1-hydroxylation) (CYP3A [3]): 0.0083
SMILES: COc1ccc2c(c1)N(C[C@H](C)CN(C)C)c1ccccc1S2 [Levomepromazine]
Therapeutic range [4]: 0.05 to 0.2 µM

SMILES: Cc1cc2c(s1)Nc1ccccc1N=C2N1CCN(C)CC1 [Olanzapine]
Therapeutic range [4]: 0.06 to 0.25 µM

Inhibitory potency ([inhibitor]/K i), CYP3A (1-hydroxylation) (CYP3A [3]): 0.0092
SMILES: Cc1nc2n(c(=O)c1CCN1CCC(c3noc4cc(F)ccc34)CC1)CCCC2 [Risperidone]

Inhibition of CYP3A midazolam 1′-hydroxylation (in words) (CYP3A [3]; human liver microsomes, abaperidone up to 20 μM): did not cause a significant inhibition
Inhibition of CYP3A midazolam 4′-hydroxylation (in words) (CYP3A [5]): did not cause a significant inhibition
Inhibition of CYP2C9 (in words) (CYP2C9): did not cause a significant inhibition
SMILES: O=c1c(CO)coc2cc(OCCCN3CCC(c4noc5cc(F)ccc45)CC3)ccc12 [abaperidone, 7-[3-[4-(6-fluoro-1,2-benzisoxazol-3-yl)-piperidin-1-yl]propoxy]-3-(hydroxymethyl)chromen-4-one]

SMILES: CN1CCN(C2=Nc3cc(Cl)ccc3Nc3ccccc32)CC1 [clozapine]
Inhibition of CYP2D6 (in words, literature) (CYP2D6 [1]): inhibitory effect
